{"source": "BindingDB's records for patent US20250074891", "about": "(Anaxis Pharma, 2025)", "test_in_all_cases": "In Vitro Assay", "key": {"[1]": {"biological_target": "T1, Receptor-interacting serine/threonine-protein kinase 1 (Homo sapiens, UniProt Q13546)", "T1 sequence (Q13546 whole entry)": "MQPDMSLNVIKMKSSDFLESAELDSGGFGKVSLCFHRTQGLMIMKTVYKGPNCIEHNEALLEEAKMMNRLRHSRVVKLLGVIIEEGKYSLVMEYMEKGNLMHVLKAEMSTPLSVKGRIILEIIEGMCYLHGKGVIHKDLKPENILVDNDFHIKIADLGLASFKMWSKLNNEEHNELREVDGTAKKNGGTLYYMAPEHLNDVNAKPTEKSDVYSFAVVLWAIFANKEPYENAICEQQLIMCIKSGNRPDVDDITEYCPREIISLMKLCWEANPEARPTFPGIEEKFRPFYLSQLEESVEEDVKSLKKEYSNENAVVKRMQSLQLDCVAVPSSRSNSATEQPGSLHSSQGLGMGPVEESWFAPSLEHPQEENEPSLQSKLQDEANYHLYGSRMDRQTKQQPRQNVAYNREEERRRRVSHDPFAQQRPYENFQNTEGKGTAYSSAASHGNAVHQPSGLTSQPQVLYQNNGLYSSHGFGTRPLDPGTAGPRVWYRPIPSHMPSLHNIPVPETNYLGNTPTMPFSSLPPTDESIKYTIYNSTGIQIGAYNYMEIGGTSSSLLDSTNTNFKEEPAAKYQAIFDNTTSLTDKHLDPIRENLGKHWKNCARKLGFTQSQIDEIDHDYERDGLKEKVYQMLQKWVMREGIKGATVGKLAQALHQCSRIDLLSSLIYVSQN", "method": "(§1) Kinase assays. For most assays, kinase-tagged T7 phage strains were grown in parallel in 24-well blocks in an E. coli host derived from the BL21 strain. E. coli were grown to log-phase and infected with T7 phage from a frozen stock (multiplicity of infection=0.4) and incubated with shaking at 32° C. until lysis (90-150 minutes)."}, "[2]": {"biological_target": "Receptor-interacting serine/threonine-protein kinase 3 (Homo sapiens, UniProt Q9Y572)", "sequence (Q9Y572 whole entry)": "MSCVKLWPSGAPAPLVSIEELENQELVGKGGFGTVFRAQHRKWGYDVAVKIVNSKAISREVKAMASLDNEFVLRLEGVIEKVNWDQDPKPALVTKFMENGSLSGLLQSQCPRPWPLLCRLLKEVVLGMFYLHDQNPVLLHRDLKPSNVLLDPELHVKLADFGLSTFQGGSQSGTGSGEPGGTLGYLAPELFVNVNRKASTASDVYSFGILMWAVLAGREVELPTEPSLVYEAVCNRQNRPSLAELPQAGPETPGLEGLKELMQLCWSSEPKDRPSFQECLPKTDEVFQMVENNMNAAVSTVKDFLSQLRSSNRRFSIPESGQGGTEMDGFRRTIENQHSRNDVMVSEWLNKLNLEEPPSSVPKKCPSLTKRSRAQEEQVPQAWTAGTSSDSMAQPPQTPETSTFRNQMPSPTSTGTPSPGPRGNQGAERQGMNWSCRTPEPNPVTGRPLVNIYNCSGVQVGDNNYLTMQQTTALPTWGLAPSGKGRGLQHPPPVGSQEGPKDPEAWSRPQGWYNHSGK", "method": "as §1"}, "[3]": {"biological_target": "T2, Mixed lineage kinase domain-like protein (Homo sapiens, UniProt Q8NB16)", "T2 sequence (Q8NB16 whole entry)": "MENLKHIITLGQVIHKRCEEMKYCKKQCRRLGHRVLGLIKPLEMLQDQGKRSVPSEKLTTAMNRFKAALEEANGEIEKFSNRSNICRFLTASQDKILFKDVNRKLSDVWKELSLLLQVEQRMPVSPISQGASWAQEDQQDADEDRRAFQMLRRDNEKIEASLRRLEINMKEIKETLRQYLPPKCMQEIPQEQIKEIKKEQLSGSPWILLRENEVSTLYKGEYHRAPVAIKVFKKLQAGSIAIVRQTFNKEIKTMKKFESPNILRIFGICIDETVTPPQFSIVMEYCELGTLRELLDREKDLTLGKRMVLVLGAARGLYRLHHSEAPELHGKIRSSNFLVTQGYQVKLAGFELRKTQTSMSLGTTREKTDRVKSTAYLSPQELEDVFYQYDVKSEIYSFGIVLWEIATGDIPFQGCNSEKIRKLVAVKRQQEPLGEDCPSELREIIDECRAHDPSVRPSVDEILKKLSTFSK", "method": "as §1"}}, "note": "pKd: −log10 of the molar value."}
{"smiles": "NC(=O)c1c(-c2ccc(NS(=O)(=O)CC(F)(F)F)c(OCc3ccc(F)cc3)c2)n[nH]c1Nc1cccc(C(F)(F)F)n1", "values": [{"measurement": "pKd", "setting": "[1]", "result": "< 4.52"}, {"measurement": "pKd", "setting": "[2]", "result": "< 4.52"}, {"measurement": "Kd", "setting": "[3]", "result": "in the range around 0.505 µM"}]}
{"smiles": "NC(=O)c1c(-c2ccc(NS(=O)(=O)Cc3ccc(Cl)cc3)cc2)n[nH]c1Nc1cccc(C(F)(F)F)n1", "note": "[US20250074891, Compound 60]", "values": [{"measurement": "pKd", "setting": "[1]", "result": "< 4.52"}, {"measurement": "pKd", "setting": "[2]", "result": "< 4.52"}]}
{"smiles": "CCS(=O)(=O)Nc1ccc(-c2n[nH]c(Nc3cccc(C(F)F)n3)c2C(N)=O)cc1", "note": "[US20250074891, Compound 92]", "values": [{"measurement": "pKd", "setting": "[1]", "result": "< 4.52"}, {"measurement": "pKd", "setting": "[3]", "result": "> 8.00"}]}
{"smiles": "CCOc1nccc(Nc2[nH]nc(-c3ccc(NS(=O)(=O)CC)cc3)c2C(N)=O)n1", "note": "[US20250074891, Compound 98]", "values": [{"measurement": "pKd", "setting": "[1]", "result": "< 4.52"}, {"measurement": "pKd", "setting": "[2]", "result": "< 4.52"}, {"measurement": "pKd", "setting": "[3]", "result": "> 8.00"}]}
{"smiles": "CCS(=O)(=O)Nc1ccc(-c2n[nH]c(Nc3cnccn3)c2C(N)=O)cc1OC1CCCc2cc(F)ccc21", "note": "(stereo not given) [US20250074891, Compound 224]", "values": [{"measurement": "pKd", "setting": "[1]", "result": "< 4.52"}, {"measurement": "pKd", "setting": "[2]", "result": "< 4.52"}, {"measurement": "pKd", "setting": "[3]", "result": "> 8.00"}]}
{"smiles": "C[C@H](Oc1cc(-c2n[nH]c(Nc3cc(C4(C)CCOCC4)on3)c2C(N)=O)ccc1NS(=O)(=O)C(F)F)c1ccc(F)cc1", "note": "[US20250074891, Compound 301]", "values": [{"measurement": "pKd", "setting": "[1]", "result": "< 4.52"}, {"measurement": "pKd", "setting": "[2]", "result": "< 4.52"}, {"measurement": "pKd", "setting": "[3]", "result": "> 8.00"}]}
{"smiles": "C[C@H](Oc1cc(-c2n[nH]c(Nc3cc(C4CC4)on3)c2C(N)=O)ccc1NS(=O)(=O)C(F)F)c1ccc(F)cc1", "note": "[US20250074891, Compound 310]", "values": [{"measurement": "pKd", "setting": "[1]", "result": "< 4.52"}, {"measurement": "pKd", "setting": "[2]", "result": "< 4.52"}, {"measurement": "pKd", "setting": "[3]", "result": "> 8.00"}]}
{"smiles": "Cc1ncsc1-c1ccc(CNC(=O)[C@@H]2C[C@@H](O)CN2C(=O)[C@@H](NC(=O)CCCCOc2ccc(Nc3[nH]nc(-c4ccc(NS(=O)(=O)C(F)F)c(OCc5ccc(F)cc5)c4)c3C(N)=O)nc2)C(C)(C)C)cc1", "note": "[US20250074891, Compound 1025]", "values": [{"measurement": "pKd", "setting": "[3]", "result": "> 8.00"}]}
